Read-outs that look alike come from different tables or passages of the source.
Tests used:
PANC-TUI cells = assay: Real time cell analysis (RTCA) of PANC-TUI cell proliferation; format: cell-based, human; details: 5µM, K-Ras dependent pancreatic tumor cell
Experimental: To address whether the novel compounds that target the farnesyl binding pocket in PDEδ inhibit the interaction between PDEδ and Ras family proteins in live cells, fluorescence lifetime imaging microscopy (FLIM)-based quantitative fluorescence resonance energy transfer (FRET) measurements were carried out. […] Figure 4: Real time cell analysis (RTCA) of PANC-TUI cell proliferation. PANC-TUI is a K-Ras dependent pancreatic tumor cell.

[1] = system: mCherry-K-Ras in PancTul cells; assay: Time series of mCherry-K-Ras redistribution in PancTul cells; format: cell-based, human; details: 5µM
CAPAN-1 cells = assay: Real time cell analysis (RTCA) of CAPAN-1 cells; format: cell-based; details: 5µM, K-Ras dependent pancreatic tumor cell
Erk = assay: Western blot of ERK signaling (Erk phosphorylation) in PANC-TUI cells; format: cell-based, human; details: 5 µM, EGF, measured by phosphorylation
[2] = system: mCherry-K-Ras in Panc1 cells; assay: Time series of mCherry-K-Ras redistribution in Panc1 cells; format: cell-based, human; details: 5µM
[3] = molecular target: interaction of Rheb with PDEδ (Homo sapiens, UniProt O43924); details: 5 µM, live MDCK cells, measured by FLIM
Experimental: To address whether the novel compounds that target the farnesyl binding pocket in PDEδ inhibit the interaction between PDEδ and Ras family proteins in live cells, fluorescence lifetime imaging microscopy (FLIM)-based quantitative fluorescence resonance energy transfer (FRET) measurements were carried out. These experiments allow the quantitative determination of the fraction (α) of interacting mCitrine (a yellow fluorescent protein) tagged Ras proteins with mCherry (a red fluorescent protein) tagged PDEδ in living cells by the change in the fluorescence lifetime (τav) of the mCitrine fused to Ras. mCitrine-Rheb was selected as the farnesylated Ras family protein due to its more clearly measurable interaction with mCherry-PDEδ in live cells.
All cells were routinely maintained in MEM Eagle's medium supplemented with 10% FBS, 1% non-essential amino acids and 1% L-glutamine. […]
Fluorescence lifetime images were acquired using a confocal laser scanning microscope (FV1000, Olympus) equipped with a time-correlated single-photon counting module (LSM Upgrade Kit, Picoquant). […] Photons were detected using a single-photon counting avalanche photodiode (PDM Series, MPD) and timed using a single-photon counting module (PicoHarp 300, Picoquant).

PDEδ farnesyl pocket = PDEδ farnesyl pocket (Homo sapiens, UniProt O43924); assay: Displacement titrations of labeled probe (fluorescence polarization) for the determination of KD values; format: binding
Text: The resulting solution was serially diluted, holding the concentrations of S54, PDEδ and DMSO constant. The sealed plates were shaken overnight at room temperature and centrifuged at the beginning of the next day. […] For the fitting of the data to a competition model the exact mathematical solution derived from the law of mass action was used as described by Roehrl et al.^3 Fraction bound data was fit using KD2 as the only fitting parameter and total ligand concentration as independent variable (OriginPro8.6, function codec from origin). [formula] • FSB: Fraction bound of fluorescent probe • KD1: Binding constant of fluorescent Probe determined from direct titration • KD2: Fitting parameter (Binding constant of unlabeld competitor) • LST: Total concentration of unlabeld small molecule competitor • RT: Total protein concentration
For the fitting of data to a competition model with cooperative binding of two benzimidazole fragments the program Scientist 3.0 was used. An experimental system was defined as a series of partial equations including the equilibrium relationships between the various species. Anisotropy data was converted to fraction bound and fitting was carried out in anlogy to a previously described set of equilibrium relationships by Goody and coworkers.^4. KD1 = ([A][PDEDf])/([APDED]) [formula] KD2 = ([L^2][PDEDf])/([LPDED]) [formula] • A:equilibrium conentration of free fluorophore • L: equilibrium concentration of free ligand • APDED: equilibrium concentration of bound fluorescent probe • LPDED: equilibrium conentration of bound small molecule • PDEDf: equilibrium conentration of free protein This model was used (together with equations describing the mass balance) to numerically simulate the FSB of fluorophore and compared with the experimental data.
Scientist input file: • // Micromath Scientist Model File • IndVars: LST • DepVars: A,L,APDED,LPDED,PDEDf,FSB • Params: ATOT,PDED,KD1,KD2 • LPDED= L^2*PDEDf/KD2 • APDED=A*PDEDf/KD1 • ATOT=A+APDED • LST=L+LPDED • PDED=PDEDf+APDED+LPDED • 0<A<ATOT • 0<L<LST • 0<PDEDf<PDED • FSB=1-A/ATOT • LST=0
The activity of the compounds was classified according to their Kd for the PDEδ farnesyl pocket into the following ranges: […]

[4] = Kd for the PDEδ farnesyl pocket, read-out: KD

Sequence of PDEδ farnesyl pocket (O43924 whole entry): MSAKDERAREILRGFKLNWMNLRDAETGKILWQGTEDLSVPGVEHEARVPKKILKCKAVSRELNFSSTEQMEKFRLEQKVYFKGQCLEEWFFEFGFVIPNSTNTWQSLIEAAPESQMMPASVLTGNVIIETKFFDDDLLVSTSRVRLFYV
Sequence of interaction of Rheb with PDEδ (O43924 whole entry): as above

Compound	Kd (PDEδ farnesyl pocket; [4]) [µM]	other results
c1ccc(Cn2c(-c3ccc(OC[C@H](C4CCNCC4)n4c(-c5ccccc5)nc5ccccc54)cc3)nc3ccccc32)cc1 [(S)-9, (S)-1-Benzyl-2-(4-(2-(2-phenyl-1H-benzo[d]imidazol-1-yl)-2-(piperidin-4-yl)ethoxy)phenyl)-1H-benzo[d]imidazole]		PANC-TUI cell proliferation (PANC-TUI cells): stopped proliferating and underwent cell death within a few hours; mCherry-K-Ras redistribution [1]: loss of K-Ras spatial organization; Proliferation of CAPAN-1 cells (CAPAN-1 cells): inhibited strongly; activation of Erk (Erk): attenuated activation of Erk; mCherry-K-Ras redistribution [2]: loss of K-Ras spatial organization; interaction between mCitrine-Rheb and mCherry-PDEδ [3]: more rapidly (within one minute) and more strongly reduced
c1ccc(C2Nc3ccccc3-c3nc4ccccc4n32)nc1 (stereo not drawn) [Compound 02, 6-Pyiridyl-5,6-dihydrobenzo[4-5]imidazo[1,2-c]quinazoline]	> 1	
c1ccc(Cn2c(-c3ccc(OCCn4c(-c5ccccc5)nc5ccccc54)cc3)nc3ccccc32)cc1 [Compound 06, 1-Benzyl-2-(4-(2-(2-phenyl-1H-benzo[d]imidazol-1-yl)ethoxy)phenyl)-1H-benzo[d]imidazole]	0.1 to 1	
CC(C)(C)OC(=O)N1CCC(C(COc2ccc(-c3nc4ccccc4n3Cc3ccccc3)cc2)n2c(-c3ccccc3)nc3ccccc32)CC1 (stereo not drawn) [Compound 08, tert-Butyl-4-(2-(4-(1-benzyl-1H-benzo[d]imidazol-2-yl)phenoxy)-1-(2-phenyl-1H-benzo[d]imidazol-1-yl)ethyl)piperidine-1-carboxylate]	> 1	
COc1ccccc1OCc1nc2ccccc2n1Cc1ccccc1Cl [Compound 13]	0.1 to 1	
C=C(C)Cn1c(-c2ccc(N(C)C)cc2)nc2ccccc21 [Compound 14]	0.1 to 1	
Oc1ccc(Cn2c(-c3ccc(O)cc3)nc3ccccc32)cc1 [Compound 15]		Kd (PDEδ farnesyl pocket): 0.025 to 0.1 µM
Cc1ccc(OCc2nc3ccccc3n2C(C)c2ccccc2)cc1 (stereo not drawn) [Compound 16]	0.1 to 1	
O=C(NCCN1CCCC1)C1CCN(c2nc3ccccc3n2Cc2ccccc2F)CC1 [Compound 17]	0.1 to 1	
O=C(NCCCN1CCN(c2ccc(O)cc2)CC1)C1CCN(c2nc3ccccc3n2Cc2cccc(F)c2)CC1 [Compound 18]		Kd (PDEδ farnesyl pocket; read-out: KD): 0.1 to 1 µM
COc1cccc(CNC(=O)C2CCN(c3nc4ccccc4n3Cc3ccccc3C)CC2)c1 [Compound 19]	0.1 to 1	
CCOc1ccc(CNC(=O)C2CCN(c3nc4ccccc4n3Cc3ccc(F)cc3)CC2)cc1 [Compound 20]	0.025 to 0.1	
CN(CCCNC(=O)C1CCN(c2nc3ccccc3n2Cc2ccc(F)cc2)CC1)C1CCCCC1 [Compound 21]	0.1 to 1	
Cc1ccccc1Cn1c(N2CCC(C(=O)O)CC2)nc2ccccc21 [Compound 22]	> 1	
CC1CCCN(C(=O)C2CCN(c3nc4ccccc4n3Cc3cccc(F)c3)CC2)C1 (stereo not drawn) [Compound 23]	> 1	
CCN(CCCNC(=O)C1CCN(c2nc3ccccc3n2Cc2ccc(C)cc2)CC1)c1cccc(C)c1 [Compound 24]	> 1	
Cc1ccccc1Cn1c(N2CCC(C(=O)NCCCN3CC(C)CC(C)C3)CC2)nc2ccccc21 (stereo not drawn) [Compound 25]	0.1 to 1	
c1ccc(CCn2c(-c3ccco3)nc3ccccc32)cc1 [Compound 26]	0.1 to 1	
COc1ccc(Cc2nc3ccccc3n2Cc2ccccc2)cc1 [Compound 27]		Kd (PDEδ farnesyl pocket): 0.1 to 1 µM
Cc1ccccc1Cn1c(Cc2ccccc2)nc2ccccc21 [Compound 28]	> 1	
CCCCc1nc2ccccc2n1Cc1ccc(Cl)cc1 [Compound 29]	0.1 to 1	
CCC(CC)c1nc2ccccc2n1Cc1ccccc1 [Compound 30]	> 1	
C=C(C)Cn1c(CC(C)C)nc2ccccc21 [Compound 31]	0.1 to 1	
CC(C)Cc1nc2ccccc2n1Cc1ccccc1 [Compound 32]	0.1 to 1	
CCc1nc2ccccc2n1Cc1ccccc1F [Compound 33]	0.1 to 1	
Cc1ccccc1Cn1c(CC(C)(C)C)nc2ccccc21 [Compound 34]	0.025 to 0.1	

Compound	Kd (PDEδ farnesyl pocket; [4]) [µM]	other results
CC(C)CCn1c(CC(C)(C)C)nc2ccccc21 [Compound 35]		Kd (PDEδ farnesyl pocket): 0.1 to 1 µM
Cc1cccc(-c2nc3ccccc3n2CCc2ccccc2)c1 [Compound 36]	> 1	
CC(C)Cc1nc2ccccc2n1Cc1c(F)cccc1Cl [Compound 37]	0.025 to 0.1	
C#CCn1c(-c2ccccc2Br)nc2ccccc21 [Compound 38]	> 1	
Clc1cccc(Cn2c(-c3ccco3)nc3ccccc32)c1 [Compound 39]	0.1 to 1	
c1ccc(Cn2c(CN3CCCCCC3)nc3ccccc32)cc1 [Compound 40]		Kd (PDEδ farnesyl pocket): 0.1 to 1 µM
CCCC(O)c1nc2ccccc2n1Cc1c(F)cccc1Cl (stereo not drawn) [Compound 41]	0.1 to 1	
Cc1ccc(-c2nc3ccccc3n2Cc2ccc(F)cc2)o1 [Compound 42]	0.1 to 1	
Fc1ccc(Cn2c(-c3cccc(Br)c3)nc3ccccc32)cc1 [Compound 43]	> 1	
Cc1ccc(NC(=O)N2CCN(c3nc4ccccc4n3Cc3ccccc3)CC2)c(C)c1 [Compound 44]	0.1 to 1	
COc1cc(OC)cc(C(=O)N2CCN(c3nc4ccccc4n3Cc3ccccc3)CC2)c1 [Compound 45]	0.1 to 1	
O=C(c1ccccc1Cl)N1CCN(c2nc3ccccc3n2Cc2ccccc2)CC1 [Compound 46]	0.1 to 1	
Cc1ccc(C)c(Cn2c(CCNC(=O)CCCC(C)O)nc3ccccc32)c1 (stereo not drawn) [Compound 47]	> 1	
Ic1ccc(Cn2c(-c3ccc(I)o3)nc3ccccc32)o1 [Compound 48]	0.025 to 0.1	
COc1cccc(C(=O)C=Cc2nc3ccccc3n2Cc2ccccc2)c1 [Compound 49]	> 1	
COc1ccc(-c2nc3ccccc3n2Cc2c(F)cccc2Cl)cc1 [Compound 50]	0.1 to 1	
O=C(NCCO)C(c1ccccc1)n1c(-c2ccccc2)nc2ccccc21 (stereo not drawn) [Compound 51]	> 1	
C=CCOc1ccc(-c2nc3ccccc3n2Cc2ccccc2)cc1 [Compound S02, 2-(4-(Allyloxy)phenyl)-1-benzyl-1H-benzo[d]imidazole]	> 1	
C=CCOc1ccc(-c2nc3ccccc3n2Cc2ccccn2)cc1 [Compound S03, 2-(4-(Allyloxy)phenyl)-1-(pyridin-2-ylmethyl)-1H-benzo[d]imidazole]	> 1	
C=CCOc1ccc(-c2nc3ccccc3n2Cc2ccccc2C)cc1 [Compound S04, 2-(4-(Allyloxy)phenyl)-1-(2-methylbenzyl)-1H-benzo[d]imidazole]	> 1	
C=CCOc1ccc(-c2nc3ccccc3n2Cc2ccc(F)cc2)cc1 [Compound S06, 2-(4-(Allyloxy)phenyl)-1-(4-fluorobenzyl)-1H-benzo[d]imidazole]	0.1 to 1	
Oc1ccc(-c2nc3ccccc3n2Cc2ccccc2)cc1 [Compound S07, 4-(1-Benzyl-1H-benzo[d]imidazol-2-yl)phenol]	0.025 to 0.1	
Oc1ccc(-c2nc3ccccc3n2Cc2ccccn2)cc1 [Compound S08, 4-(1-(Pyridin-2-ylmethyl)-1H-benzo[d]imidazol-2-yl)phenol]	> 1	
Oc1ccc(-c2nc3ccccc3n2Cc2ccc(F)cc2)cc1 [Compound S09, 4-(1-(4-Fluorobenzyl)-1H-benzo[d]imidazol-2-yl)phenol]	0.1 to 1	
O=C(NCc1ccccc1)C(C1CCCCC1)n1c(-c2ccccc2)nc2ccccc21 (stereo not drawn) [Compound S12, N-Benzyl-2-cyclohexyl-2-(2-phenyl-1H-benzo[d]imidazol-1-yl)acetamide]	0.1 to 1	
OCC(C1CCCCC1)n1c(-c2ccccc2)nc2ccccc21 (stereo not drawn) [Compound S16, 2-Cyclohexyl-2-(2-phenyl-1H-benzo[d]imidazol-1-yl)ethanol]	> 1	
